# Source: patent publication EP0745595A1, “3-(3-Aryloxyphenyl)-1-(substituted methyl)-s-triazine-2,4,6-oxo or thiotrione herbicidal agents” (American Cyanamid Company, priority 1995, dated 1996)
# Legend:
# Format in all cases: in vivo
# [1] = tested on: GLYCINE MAX(L) MERR. CV. WILLIAMS; assay: Postemergence herbicidal evaluation, GLXMAW (Soybean, Williams); set-up: key to GLXMAW rating / Herbicidal effect rating, GLXMAW / GLXMAW: 0-9 visual rating scale vs untreated control
# How it was run: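 Herbicidal injury to Williams soybean was assessed after a postemergence spray of two-week-old seedlings grown in jiffy flats. Compounds were dispersed in an acetone/water (50/50) mixture with 0.5% TWEEN®20 surfactant and applied at 40 psi. After four to five weeks in the greenhouse, stand, vigor, malformation, size and chlorosis were compared against a control on a 0-9 scale, and results from replicate tests were averaged.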
# [2] = tested on: ORYZA SATIVA, L. TEBONNET; assay: Postemergence herbicidal evaluation, ORYSAT (Rice, Tebonnet); set-up: key: 0-9 visual rating scale vs untreated control
# How it was run: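 This postemergence greenhouse test used Oryza sativa cv. Tebonnet seedlings grown about two weeks in jiffy flats. Test material in 50/50 acetone/water with 0.5% TWEEN®20 surfactant was applied through a spray nozzle at 40 psi. Four to five weeks later, stand, vigor, malformation, size, chlorosis and overall appearance were rated 0-9 relative to a control, and repeat tests were averaged.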
# CASSIA OBTUSIFOLIA, L. = assay: Preemergence herbicidal evaluation, CASOB (Sicklepod); details: four to five weeks after treatment
# How it was run: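 Preemergence herbicidal activity against sicklepod was assessed by planting seed mixed with potting soil atop about one inch of soil in pint cups. After treatment the cups were watered and handled per standard greenhouse practice. Tests ended four to five weeks later, with plant stand, vigor, malformation, size, chlorosis and overall appearance scored 0-9 relative to a control.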
# CHENOPODIUM ALBUM, L. = assay: Preemergence herbicidal evaluation, CHEAL (Lambsquarters, Common); details: for CHEAL rating: four to five weeks after treatment
# How it was run: (§1)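 Greenhouse preemergence test; treated soil cups received compound in aqueous acetone (about 0.125 to 0.50 kg/ha) right after sowing and were assessed visually 4-5 weeks later on a 0-9 scale compared with control plants.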
# GALIUM APARINE = assay: Preemergence herbicidal evaluation, GALAP (Galium); details: four to five weeks after treatment
# How it was run: as §1
# [3] = tested on: ECHINOCHLOA ORYZOIDES (ARD.)FRITSCH; assay: Preemergence weed control under flooded paddy conditions, ECHORC (Watergrass (Calif.)); details: preemergence weeds, rated three to four weeks after treatment
# How it was run: (§2)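 Visual 0-9 score (stand, vigor, malformation, size, chlorosis, appearance vs untreated control) taken 3-4 wk after treatment. Test compounds were added into flood water (1.5-3 cm over silt loam) as 50/50 v/v aqueous/acetone, equivalent to about 0.5-0.063 kg/ha a.i.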
# CYPERUS IRIA = assay: Preemergence weed control under flooded paddy conditions, CYPIR (Rice Flatsedge); details: preemergence weeds, rated three to four weeks after treatment
# How it was run: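 This preemergence test mimicked flooded paddy conditions: rice flatsedge propagules were sown in the upper 0.5 cm of silt loam in undrained 32 oz. containers (10.5 cm diameter), with water held 1.5 to 3 cm over the soil. After normal greenhouse care, plants were scored 0-9 for stand, vigor, malformation, size, chlorosis and appearance relative to controls.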
# […], PRESL. = Preemergence weed control under flooded paddy conditions, MOOVA (Monochoria); details: preemergence weeds, rated three to four weeks after treatment
# How it was run: as §2
# SAGITTARIA PYGMAEA, L. = assay: Preemergence weed control under flooded paddy conditions, SAGPY (Arrowhead (Pygmaea)); details: for SAGPY: pre-weed; for SAGPY herbicidal rating: preemergence weeds, rated three to four weeks after treatment
# How it was run: as §2
structure (smiles),measurement,setting,value
"COC(=O)Cn1c(=O)n(C)c(=O)n(-c2cc(Oc3c(F)cc(C(F)(F)F)cc3Cl)ccc2Br)c1=O [Compound 2, Methyl 3-{2-bromo-5-[(2-chloro-α,α,α,6-tetrafluoro-p-tolyl)oxy]phenyl}tetrahydro-5-methyl-2,4,6-trioxo-s-triazine-1(2H)-acetate]","Herbicidal effect rating, GLXMAW",[1]; 0.063 kg/ha,6.9
same,"Herbicidal effect rating, GLXMAW",[1]; 0.125 kg/ha,7.2
same,"Herbicidal effect rating, GLXMAW",[1]; 0.250 kg/ha,8.0
same,"Herbicidal effect rating, GLXMAW",[1]; 0.500 kg/ha,8.3
same,"Herbicidal effect rating, ORYSAT",[2]; 0.063 kg/ha,6.3
same,"Herbicidal effect rating, ORYSAT",[2]; 0.125 kg/ha,6.3
same,"Herbicidal effect rating, ORYSAT",[2]; 0.250 kg/ha,7.0
same,"Herbicidal effect rating, ORYSAT",[2]; 0.500 kg/ha,7.5
same,CASOB rating,"CASSIA OBTUSIFOLIA, L.; Rate 0.125 kg/ha",9.0
same,CASOB rating,"CASSIA OBTUSIFOLIA, L.; Rate 0.250 kg/ha",9.0
same,CASOB rating,"CASSIA OBTUSIFOLIA, L.; Rate 0.500 kg/ha",9.0
same,CHEAL,"CHENOPODIUM ALBUM, L.; Rate 0.063 kg/ha",9.0
same,CHEAL,"CHENOPODIUM ALBUM, L.; Rate 0.125 kg/ha",9.0
same,CHEAL rating,"CHENOPODIUM ALBUM, L.; Rate 0.125 kg/ha",9.0
same,CHEAL,"CHENOPODIUM ALBUM, L.; Rate 0.250 kg/ha",9.0
same,CHEAL rating,"CHENOPODIUM ALBUM, L.; Rate 0.250 kg/ha",9.0
same,CHEAL,"CHENOPODIUM ALBUM, L.; Rate 0.500 kg/ha",9.0
same,CHEAL rating,"CHENOPODIUM ALBUM, L.; Rate 0.500 kg/ha",9.0
same,GALAP rating,GALIUM APARINE; Rate 0.125 kg/ha,9.0
same,GALAP rating,GALIUM APARINE; Rate 0.250 kg/ha,9.0
same,GALAP rating,GALIUM APARINE; Rate 0.500 kg/ha,9.0
same,ECHORC herbicidal rating,[3]; Rate 0.063 kg/ha,9.0
same,ECHORC herbicidal rating,[3]; Rate 0.125 kg/ha,9.0
same,ECHORC herbicidal rating,[3]; Rate 0.250 kg/ha,9.0
same,ECHORC herbicidal rating,[3]; Rate 0.500 kg/ha,9.0
same,CYPIR herbicidal rating,CYPERUS IRIA; Rate 0.063 kg/ha,9.0
same,CYPIR herbicidal rating,CYPERUS IRIA; Rate 0.125 kg/ha,9.0
same,CYPIR herbicidal rating,CYPERUS IRIA; Rate 0.250 kg/ha,9.0
same,CYPIR herbicidal rating,CYPERUS IRIA; Rate 0.500 kg/ha,9.0
same,MOOVA herbicidal rating,"[…], PRESL.; Rate 0.063 kg/ha",9.0
same,MOOVA herbicidal rating,"[…], PRESL.; Rate 0.125 kg/ha",9.0
same,MOOVA herbicidal rating,"[…], PRESL.; Rate 0.250 kg/ha",9.0
same,MOOVA herbicidal rating,"[…], PRESL.; Rate 0.500 kg/ha",9.0
"COC(=O)Cn1c(=O)n(C)c(=O)n(-c2cc(Oc3ccc(C(F)(F)F)cc3Cl)ccc2[N+](=O)[O-])c1=O [Compound 3, Methyl 3-{5-[(2-chloro-α,α,α-trifluoro-p-tolyl)oxy]-2-nitrophenyl}tetrahydro-5-methyl-2,4,6-trioxo-s-triazine-1(2H)-acetate]","Herbicidal effect rating, GLXMAW",[1]; 0.031 kg/ha,4.8
same,"Herbicidal effect rating, GLXMAW",[1]; 0.063 kg/ha,5.3
same,"Herbicidal effect rating, GLXMAW",[1]; 0.125 kg/ha,5.9
same,"Herbicidal effect rating, GLXMAW",[1]; 0.250 kg/ha,6.3
same,"Herbicidal effect rating, ORYSAT",[2]; 0.031 kg/ha,4.9
same,"Herbicidal effect rating, ORYSAT",[2]; 0.063 kg/ha,5.1
same,"Herbicidal effect rating, ORYSAT",[2]; 0.125 kg/ha,5.7
same,"Herbicidal effect rating, ORYSAT",[2]; 0.250 kg/ha,6.6
same,CHEAL rating,"CHENOPODIUM ALBUM, L.; Rate 0.125 kg/ha",9.0
same,CHEAL rating,"CHENOPODIUM ALBUM, L.; Rate 0.250 kg/ha",9.0
same,CHEAL rating,"CHENOPODIUM ALBUM, L.; Rate 0.500 kg/ha",9.0
same,GALAP rating,GALIUM APARINE; Rate 0.125 kg/ha,7.3
same,GALAP rating,GALIUM APARINE; Rate 0.250 kg/ha,8.4
same,GALAP rating,GALIUM APARINE; Rate 0.500 kg/ha,9.0
same,SAGPY,"SAGITTARIA PYGMAEA, L.; Rate 0.031 kg/ha",0.0
same,SAGPY,"SAGITTARIA PYGMAEA, L.; Rate 0.063 kg/ha",0.0
same,SAGPY,"SAGITTARIA PYGMAEA, L.; Rate 0.125 kg/ha",0.0
same,SAGPY,"SAGITTARIA PYGMAEA, L.; Rate 0.250 kg/ha",0.0
same,SAGPY herbicidal rating,"SAGITTARIA PYGMAEA, L.; Rate 0.063 kg/ha",0.0
same,SAGPY herbicidal rating,"SAGITTARIA PYGMAEA, L.; Rate 0.125 kg/ha",0.0
same,SAGPY herbicidal rating,"SAGITTARIA PYGMAEA, L.; Rate 0.250 kg/ha",0.0
same,SAGPY herbicidal rating,"SAGITTARIA PYGMAEA, L.; Rate 0.500 kg/ha",0.0
